Experimental findings from patent publication US20090312356A1, “NICOTINIC AGONISTS SELECTIVE FOR THE ALPHA7 RECEPTOR SUBTYPE, THE PROCESS FOR THE PREPARATION THEREOF AND PHARMACEUTICAL CO[…]” (priority 2006, published 2009) are described below.

Each structure is given as a SMILES string.

One series deals with T1, human α7 (hα7) receptors (Homo sapiens, UniProt P36544).
T1 construct: expressed in transfected cells
Put plainly: whole cell patch-clamp electrophysiological recordings, hα7-expressing GH4C1 cells. Particulars: 50 nM. It counts as cell-based.

T1 sequence (P36544 23-502): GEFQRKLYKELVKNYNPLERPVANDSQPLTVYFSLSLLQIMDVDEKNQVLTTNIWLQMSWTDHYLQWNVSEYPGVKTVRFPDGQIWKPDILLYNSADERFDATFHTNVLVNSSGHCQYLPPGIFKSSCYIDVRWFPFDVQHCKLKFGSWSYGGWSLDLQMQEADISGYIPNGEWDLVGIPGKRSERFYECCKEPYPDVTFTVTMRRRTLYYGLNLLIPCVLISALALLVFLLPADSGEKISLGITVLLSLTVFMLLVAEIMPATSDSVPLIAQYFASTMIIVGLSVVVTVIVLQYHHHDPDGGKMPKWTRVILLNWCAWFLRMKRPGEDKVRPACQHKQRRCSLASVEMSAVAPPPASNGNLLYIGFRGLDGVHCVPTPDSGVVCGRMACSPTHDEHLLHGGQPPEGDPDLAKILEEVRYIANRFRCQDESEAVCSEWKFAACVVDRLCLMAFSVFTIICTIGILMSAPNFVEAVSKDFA
Protocol for human α7 (hα7) receptors: α7 Subtype: The human α7 (hα7) receptors were stably expressed in transfected GH4C1 and grown in the presence of geneticin (G418 sulfate, 500 μg/mL) as previously described.^31

For the compound `BrC1=NN(c2ccccc2)C2(C1)CN1CCC2CC1` (racemic), the melting point was 203 to 207 °C.
As to `CCN1C[C@]2(COC(=O)c3ccccc3N3C(=O)C[C@H](C)C3=O)CC[C@H](OC)[C@@]34[C@@H]5C[C@H]6[C@H](OC)[C@@H]5[C@](O)(C[C@@H]6OC)[C@@](O)([C@@H](OC)[C@H]23)[C@@H]14` [methyllycaconitine], the “effect on acetylcholine-induced hα7 current” value at human α7 (hα7) receptors is on record as “blocked”.
In turn, `c1ccc(COC2=NOC3(C2)CN2CCC3CC2)cc1` (racemic) came in with a melting point above 50 °C.
Compound `CN1OC2(CC1=O)CN1CCC2CC1` (racemic) came in with a melting point of 182 to 183 °C.
